These results are taken from article PMC7311426, “An amphipathic peptide with antibiotic activity against multidrug-resistant Gram-negative bacteria” (Nature Communications, 2020).

For assay [1], the system named is E. coli AID#172. In kind it is in vivo, E. coli in NMRI mice. The protocol: Peritonitis and UTI murine models were performed at the Department of Microbiology & Infection Control, Statens Serum Institute, Copenhagen, Denmark, under approval by the National Committee of Animal Ethics, Denmark, and adhered to the standards of EU Directive 2010/63/EU. The mouse pneumonia model was performed by Evotec Ltd, United Kingdom, under UK Home Office Licenses and with local ethical committee clearance. All animal studies were contracted by Adenium Biotech ApS.
(§1) Peptides were prepared in Ringer’s acetate pH 6.0 (vehicle) at 34 mg mL^−1. Comparator antibiotics included meropenem (Meronem®, AstraZeneca), polymyxin B sulfate (Sigma) and tobramycin (Novartis).
The E. coli peritonitis in vivo model was conducted using an E. coli AID#172 strain in female NMRI mice (Harlan) that were rendered neutropenic by injecting 0.5 mL cyclophosphamide solution (Apodan®) intraperitoneally for 4 days (~200 mg kg^−1) and 1 day (~100 mg kg^−1) prior to inoculation of infection. At time −1 h, mice were inoculated intraperitoneally with 0.5 mL of 2 × 10^6 CFU mL^−1 E. coli AID#172 suspension in the lateral lower quadrant of the abdomen. […] CFU counts were determined from blood and peritoneal fluid at 0 and 5 h after treatment. The mice were anesthetized with Zoletil® and blood was collected by axillary cut down. The mice were killed by cervical dislocation, a total of 2 mL sterile saline was injected i.p. and the abdomen gently massaged before it was opened, fluid sampled with a pipette, and collected for CFU counts on agar.

The nature of assay [2]: SPR binding to model membrane lipids. The arrangement: species or system E. coli. The conditions noted are these: for Binding to DMPC with lipid A versus DMPC alone (SPR): 1 µM and 10 µM, 100 × RU/MW at t = 180 s, n = 3, Student's t-test; for SPR response, Difference (Mean1 - Mean2): DMPC minus 10% lipid A-DMPC, multiple t-tests; for SPR response, Mean2 (10% lipid A-DMPC): mean of n = 3. The protocol: SPR experiments were performed on a Biacore T200 using an L1 sensor chip as previously described. Small unilamellar vesicles (SUVs) were prepared in PBS by sonication and extrusion. Lipids were dissolved in ethanol-free chloroform in 25 mL round-bottom flasks. 10% (mol/mol) of E. coli lipid A, diphosphoryl (Sigma-Aldrich, Cat # L5399) was added into 1,2-dimyristoyl-sn-glycero-3-phosphocholine (DMPC) (Auspep, Cat # 850345P) solution to make lipid A–DMPC mixtures, which were then deposited as a thin film by removal of the solvent (chloroform) under reduced pressure on a rotary evaporator and dried under high vacuum for at least 2 h. PBS was then added into each flask to give a 1 mM (DMPC) suspension, which was sonicated 5 min for five times. […] The SUVs were then injected into the flow cells of the L1 sensor chip for 2000 s at a low flow rate of 2 μL min^−1 to form a bilayer membrane model on the chip surface. Then, a series of peptide solutions (30–0.33 μM in 3-fold dilution), was injected across the flow cells at a flow rate of 30 μL min^−1, having an injection phase of 180 s, and a dissociation phase of 300 s. The binding responses (RU) were normalized by molecular weight (MW) of each peptide. The equation 100 × RU/MW was used for normalization.
Background: SPR reads the build-up and loss of mass on a sensor chip optically.

The test system of assay [3] is E. coli AID#172. In kind it is in vivo, E. coli in NMRI mice. The protocol:
as §1
The E. coli thigh infection in vivo model was conducted using an E. coli AID#172 strain in female NMRI mice (Taconic) that were rendered neutropenic as above. At time −1 h, mice were inoculated intramuscularly in the quadriceps femoral muscle close to the femur of the left hind leg with 0.05 mL of a suspension of ~1–5 × 10^7 CFU mL^−1 of E. coli (fresh overnight colonies from 5% Horse Blood Agar plate suspended in sterile saline to ~10^8 CFU mL^−1, then diluted) with compound administered intravenously 1 and 12 h post infection (injection over 30 s with 10 mL kg^−1 of 0.6–15 mg kg^−1 AA139 or 5 mg kg^−1 polymyxin B). Colony counts were determined in thighs at 0 and 24 h post infection. The mice were killed by cervical dislocation, the skin was removed and the left hind leg from the hip joint to the hock was collected, cut into at least three parts and frozen at −80 °C. After thawing, the thighs were homogenized in 5 mL saline using a Dispomix® Drive. Each sample was then 10-fold diluted in saline and 20 μL spots were applied on 5% blood agar plates. All agar plates were incubated 18–24 h at 35 °C in ambient air.
This is another data set of the same source.

A further assay relates to B. subtilis. In words: microbe, parasite or virus in culture. The note with it: for MIC: Bacillus subtilis. In outline:
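Broth microdilution in MHB, 2-fold 12-point series from 128 or 64 down to 0.06 or 0.03 μg mL^−1, 5 × 10^5 CFU mL^−1. Extra runs in CAMHB per CLSI and in MHB with 1% agarose; n ≥ 6.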

Where [4] appears, read: AA139 3.75 mg kg-1, Meropenem 40 mg kg-1, Dunnett's multiple comparisons test.
The mark [5] stands for this setting: MDR E. coli AID #172, AA139 3.75 mg kg-1, Meropenem 40 mg kg-1, mean of n = 3.

Values after ≈ are worked out from the molar mass of the structure shown. Like-named read-outs stand apart in the source and are kept apart here. Residues, ends and D or L forms follow the SMILES beside them.

For `C[C@@H](O)[C@H]1C(=O)N2C(C(=O)O)=C(S[C@@H]3CN[C@H](C(=O)N(C)C)C3)[C@H](C)[C@H]12` [Meropenem, meropenem, reference compound], the “Change of CFU levels in peritoneal fluid and blood vs vehicle” value with E. coli AID#172 [1] (40 mg kg^−1 i.v., not statistically significant) is on record as “slight reduction”. Besides, in the assay with E. coli AID#172 [1] (setting [4]), the “Blood 5hr, Mean Diff. vehicle vs. treatment” value came out at 0.6733 and the “PF 5hr, Mean Diff. vehicle vs. treatment” value was 0.08333. Besides, in the assay on E. coli AID#172 [1] (setting [5]), the “Blood 5hr bacterial load, Mean” value came out at 3.163 and the “PF 5 hr bacterial load, Mean” value is on record as 4.56.
Turning to colistin, in assay [2], the “Binding to DMPC with lipid A versus DMPC alone (SPR)” value is listed as “Significant difference”. Further, in assay [2] (1uM), the “SPR response, Difference (Mean1 - Mean2)” value is -12.5563 and the “SPR response, Mean2 (10% lipid A-DMPC)” value was found to be 19.5933. Besides, in assay [2] (10uM), the “SPR response, Difference (Mean1 - Mean2)” value is listed as -66.912 and the “SPR response, Mean2 (10% lipid A-DMPC)” value amounted to 125.433.
With `CC(C)[C@@H]1NC(=O)[C@H](Cc2ccc(O)cc2)NC(=O)[C@H](Cc2c[nH]c3ccccc23)NC(=O)[C@@H](NC(=O)[C@H](Cc2ccccc2)NC(=O)CN)CSSC[C@@H](C(=O)N[C@@H](CC(N)=O)C(=O)O)NC(=O)[C@H](CCCNC(=N)N)NC(=O)[C@H](CCCNC(=N)N)NC(=O)[C@H](Cc2ccc(O)cc2)NC(=O)[C@@H]2CSSC[C@H](NC1=O)C(=O)N[C@@H](C)C(=O)N[C@@H](CCCNC(=N)N)C(=O)N[C@@H](CCCNC(=N)N)C(=O)N[C@@H](CC(N)=O)C(=O)NCC(=O)N[C@@H](C)C(=O)N[C@@H](CCCNC(=N)N)C(=O)N[C@@H](C(C)C)C(=O)N2` [AA139] (HELM PEPTIDE1{G.F.C.W.Y.V.C.A.R.R.N.G.A.R.V.C.Y.R.R.C.N}$PEPTIDE1,PEPTIDE1,3:R3-20:R3|PEPTIDE1,PEPTIDE1,7:R3-16:R3$$$V2.0), the ED50 in thigh in the assay on E. coli AID#172 [3] (mouse, in vivo, iv) was 4.8 mg/kg. Further, the “BMD MIC” value with B. subtilis was 2 µg/mL. Besides, in the assay with E. coli AID#172 [1] (mouse, in vivo, iv), the ED50 in blood was determined as 1.55 mg/kg and the “ED50 in peritoneal fluid” value was found to be 1.85 mg/kg.
Turning to “polymyxin B [PolymyxinB, reference compound]”, the “Log reduction in thigh CFU compared to saline control” value in the assay with E. coli AID#172 [3] (5 mg kg^−1, two i.v. doses) came out at 3.13 log. In addition, the “Binding to DMPC with lipid A versus DMPC alone (SPR)” value in assay [2] is on record as “Significant difference”. In assay [2] (1uM), the “SPR response, Difference (Mean1 - Mean2)” value was -20.0727 and the “SPR response, Mean2 (10% lipid A-DMPC)” value is 48.41. Also, in assay [2] (10uM), the “SPR response, Difference (Mean1 - Mean2)” value is reported as -95.8227 and the “SPR response, Mean2 (10% lipid A-DMPC)” value stood at 222.033.
On to `CNC(C)C1CCC(N)C(OC2C(N)CC(N)C(OC3OCC(C)(O)C(NC)C3O)C2O)O1` (stereo not shown) [Gentamicin, gentamicin, reference compound], for which the MIC in the assay with B. subtilis (ATCC6051 / NRS744, read-out: BMD MIC) was 0.25 µg/mL (≈ 0.523 µM); in the assay on B. subtilis (ATCC6633 / NRS231, read-out: BMD MIC) it was 0.5 µg/mL (≈ 1.05 µM).
